The source of these data is patent publication US6465654B2, “Process for preparing 1-substituted, 2-substituted 1H-imidazo[4, 5-c]quinoline-4-amines” (3M Innovative Properties Company, priority 1991, dated 2002).

The subject of one assay is interferon-α. Briefly: Interferon-α induction in human cells, PBM. The format is cell-based. The following applies: 24 hours.
Assay [1] relates to vesicular stomatitis virus (VSV). Briefly: microbe, parasite or virus in culture. The format is cell-based. The following applies: for VSV Yield Inhibition: log10 (control VSV yield/experimental VSV yield).
Another assay deals with interferon. Briefly: Interferon induction in mice. The class given is in vivo. The following applies: mouse serum. Here is the method: One hour later blood samples are withdrawn from the first group. The samples are pooled then centrifuged. The serum is removed from the centrifuge tube, split into two portions, then placed in freezing vials and maintained at −70° C. until analysis. This procedure is repeated at 2 hours with the second group of mice and at 4 hours with the third group of mice. Samples are assayed as described above in connection with the analysis of interferon induction in human cells. The results are expressed in the table below as α/β reference units/mL based on the value obtained for a mouse MU-1-IF standard. Results are shown in the table below wherein results designated as “<” a certain number indicate that interferon was not detectable in amounts above the lower sensitivity level of the assay.

[2] abbreviates: Vesicular stomatitis virus, read-out: VSV Yield Inhibition.

Turning to `COC(C)Cc1nc2c(N)nc3ccccc3c2n1CC(C)C` (stereo not shown) [Example 77, 2-(2-Methoxypropyl)-1-(2-methylpropyl)-1H-imidazo[4,5-c]quinolin-4-amine], the Interferon-α induction in the assay on interferon-α (dose concentration 0.01 μg/mL) is listed as <6.3 α Reference Units/mL; in the assay with interferon-α (dose concentration 0.05 μg/mL) it was <6.3 α Reference Units/mL; in the assay with interferon-α (dose concentration 0.10 μg/mL) it was 2600 α Reference Units/mL; with interferon-α (dose concentration 0.50 μg/mL), 390 α Reference Units/mL; in the assay on interferon-α (dose concentration 1.0 μg/mL), 250 α Reference Units/mL; in the assay on interferon-α (dose concentration 5.0 μg/mL), 280 α Reference Units/mL. In assay [1] (setting [2]), the log reduction at 0.1 µg/mL is 3. The log reduction at 0.5 µg/mL in assay [1] (setting [2]) was 5. The log reduction at 1 µg/mL in assay [1] (setting [2]) was found to be 5.

Consider `CCOCc1nc2c(N)nc3ccccc3c2n1CC(C)C` [Example 40, 2-Ethoxymethyl-1-(2-methylpropyl)-1H-imidazo[4,5-c]quinolin-4-amine], for which the Interferon-α induction with interferon-α (dose concentration 0.10 μg/mL) is 680 α Reference Units/mL; in the assay with interferon-α (dose concentration 0.50 μg/mL) it was 230 α Reference Units/mL; in the assay on interferon-α (dose concentration 1.0 μg/mL) it was 210 α Reference Units/mL; with interferon-α (dose concentration 5.0 μg/mL), 210 α Reference Units/mL. Moreover, the “Interferon induction in mice” value is given as 450 Reference Units/mL with interferon (oral 0.3 mg/kg, 1 hr); 200 Reference Units/mL in the assay on interferon (oral 0.3 mg/kg, 2 hr); less than 29 Reference Units/mL with interferon (oral 0.3 mg/kg, 4 hr); 450 Reference Units/mL in the assay on interferon (oral 1 mg/kg, 1 hr); 450 Reference Units/mL with interferon (oral 1 mg/kg, 2 hr); 110 Reference Units/mL with interferon (oral 1 mg/kg, 4 hr). Moreover, the “Interferon induction in mice” value is given as 990 Reference Units/mL in the assay on interferon (oral 3 mg/kg, 1 hr); 1100 Reference Units/mL in the assay on interferon (oral 3 mg/kg, 2 hr); 210 Reference Units/mL in the assay with interferon (oral 3 mg/kg, 4 hr); 1600 Reference Units/mL in the assay on interferon (oral 10 mg/kg, 1 hr); 1600 Reference Units/mL in the assay with interferon (oral 10 mg/kg, 2 hr); 170 Reference Units/mL in the assay with interferon (oral 10 mg/kg, 4 hr). In addition, in assay [1] (setting [2]), the log reduction at 1 µg/mL is 7. The log reduction at 5 µg/mL in assay [1] (setting [2]) was 7. Further, the log reduction at 10 µg/mL in assay [1] (setting [2]) was found to be 6.

In the case of `CCOCc1nc2c(N)nc3ccccc3c2n1Cc1ccccc1` [Example 93, 2-Ethoxymethyl-1-phenylmethyl-1H-imidazo[4,5-c]quinolin-4-amine], the Interferon-α induction with interferon-α (dose concentration 0.10 μg/mL) is reported as 850 α Reference Units/mL; with interferon-α (dose concentration 0.50 μg/mL), 280 α Reference Units/mL; in the assay with interferon-α (dose concentration 1.0 μg/mL), 300 α Reference Units/mL; in the assay with interferon-α (dose concentration 5.0 μg/mL), 300 α Reference Units/mL. The “Interferon induction in mice” value in the assay with interferon (oral 0.3 mg/kg, 1 hr) is given as 400 Reference Units/mL; with interferon (oral 0.3 mg/kg, 2 hr) it was 360 Reference Units/mL; in the assay with interferon (oral 0.3 mg/kg, 4 hr) it was “≦150 Reference Units/mL”; in the assay with interferon (oral 1 mg/kg, 1 hr), 660 Reference Units/mL; with interferon (oral 1 mg/kg, 2 hr), 1500 Reference Units/mL; with interferon (oral 1 mg/kg, 4 hr), 340 Reference Units/mL. The “Interferon induction in mice” value is on record as 1300 Reference Units/mL with interferon (oral 3 mg/kg, 1 hr); 1300 Reference Units/mL in the assay on interferon (oral 3 mg/kg, 2 hr); “˜260 Reference Units/mL” in the assay with interferon (oral 3 mg/kg, 4 hr); 2100 Reference Units/mL in the assay on interferon (oral 10 mg/kg, 1 hr); 2900 Reference Units/mL in the assay with interferon (oral 10 mg/kg, 2 hr); 630 Reference Units/mL with interferon (oral 10 mg/kg, 4 hr). Besides, the log reduction at 0.1 µg/mL in assay [1] (setting [2]) worked out at 0. In addition, in assay [1] (setting [2]), the log reduction at 0.5 µg/mL is 5. Further, the log reduction at 1 µg/mL in assay [1] (setting [2]) turned out to be 5.

Consider `CCOCc1nc2c(N)nc3ccccc3c2n1CCCOC` [Example 44, 2-Ethoxymethyl-1-(3-methoxypropyl)-1H-imidazo[4,5-c]quinolin-4-amine], for which the Interferon-α induction in the assay with interferon-α (dose concentration 0.10 μg/mL) is 3000 α Reference Units/mL; in the assay with interferon-α (dose concentration 0.50 μg/mL), 430 α Reference Units/mL; in the assay on interferon-α (dose concentration 1.0 μg/mL), 430 α Reference Units/mL; in the assay with interferon-α (dose concentration 5.0 μg/mL) it was 760 α Reference Units/mL. The “Interferon induction in mice” value is recorded as “˜570 Reference Units/mL” in the assay on interferon (oral 0.3 mg/kg, 1 hr); 510 Reference Units/mL in the assay on interferon (oral 0.3 mg/kg, 2 hr); less than 260 Reference Units/mL in the assay on interferon (oral 0.3 mg/kg, 4 hr); 990 Reference Units/mL in the assay with interferon (oral 1 mg/kg, 1 hr); less than 260 Reference Units/mL in the assay with interferon (oral 1 mg/kg, 2 hr); less than 260 Reference Units/mL in the assay on interferon (oral 1 mg/kg, 4 hr). Also, the “Interferon induction in mice” value is recorded as 1000 Reference Units/mL in the assay with interferon (oral 3 mg/kg, 1 hr); 1500 Reference Units/mL with interferon (oral 3 mg/kg, 2 hr); less than 260 Reference Units/mL in the assay with interferon (oral 3 mg/kg, 4 hr); 1800 Reference Units/mL with interferon (oral 10 mg/kg, 1 hr); 1600 Reference Units/mL in the assay on interferon (oral 10 mg/kg, 2 hr); 790 Reference Units/mL with interferon (oral 10 mg/kg, 4 hr). Further, in assay [1] (setting [2]), the log reduction at 0.1 µg/mL stood at 3. The log reduction at 0.5 µg/mL in assay [1] (setting [2]) was 4. Besides, the log reduction at 1 µg/mL in assay [1] (setting [2]) is 7.

As for `CCCCC(OC)c1nc2c(N)nc3ccccc3c2n1CC(C)C` (stereo not shown) [Example 61, 2-(1-Methoxypentyl)-1-(2-methylproyl) -1H-imidazo[4,5-c]quinolin-4-amine], the Interferon-α induction with interferon-α (dose concentration 0.10 μg/mL) was 64 α Reference Units/mL; with interferon-α (dose concentration 0.50 μg/mL), 1300 α Reference Units/mL; in the assay on interferon-α (dose concentration 1.0 μg/mL), 330 α Reference Units/mL; in the assay on interferon-α (dose concentration 5.0 μg/mL), 330 α Reference Units/mL. In addition, the “Interferon induction in mice” value is less than 56 Reference Units/mL with interferon (oral 0.3 mg/kg, 1 hr); less than 56 Reference Units/mL in the assay on interferon (oral 0.3 mg/kg, 2 hr); less than 56 Reference Units/mL in the assay with interferon (oral 0.3 mg/kg, 4 hr); 120 Reference Units/mL in the assay with interferon (oral 1 mg/kg, 1 hr); 220 Reference Units/mL with interferon (oral 1 mg/kg, 2 hr); 97 Reference Units/mL with interferon (oral 1 mg/kg, 4 hr). For the same compound, the “Interferon induction in mice” value in the assay with interferon (oral 3 mg/kg, 1 hr) is recorded as 290 Reference Units/mL; with interferon (oral 3 mg/kg, 2 hr), 500 Reference Units/mL; with interferon (oral 3 mg/kg, 4 hr), 120 Reference Units/mL; in the assay on interferon (oral 10 mg/kg, 1 hr), 290 Reference Units/mL; in the assay on interferon (oral 10 mg/kg, 2 hr), 1100 Reference Units/mL; in the assay on interferon (oral 10 mg/kg, 4 hr), 160 Reference Units/mL. Further, the “VSV Yield Inhibition” value in assay [1] (dose concentration 0.1 μg/mL) was 5 log10; in assay [1] (dose concentration 0.5 μg/mL) it was 7 log10; in assay [1] (dose concentration 1.0 μg/mL), 5 log10.

For the compound `CC(C)Cn1c(CC(C)O)nc2c(N)nc3ccccc3c21` (stereo not drawn) [Example 81, 4-Amino-α-methyl-1-(2-methylpropyl)-1H-imidazo[4,5-c]quinoline-2-ethanol], the Interferon-α induction in the assay with interferon-α (dose concentration 0.10 μg/mL) was 1100 α Reference Units/mL; in the assay with interferon-α (dose concentration 0.50 μg/mL), 2200 α Reference Units/mL; in the assay on interferon-α (dose concentration 1.0 μg/mL) it was 460 α Reference Units/mL; with interferon-α (dose concentration 5.0 μg/mL), 1100 α Reference Units/mL. Besides, the log reduction at 0.1 µg/mL in assay [1] (setting [2]) turned out to be 5. For the same compound, in assay [1] (setting [2]), the log reduction at 0.5 µg/mL was 4. In addition, in assay [1] (setting [2]), the log reduction at 1 µg/mL came out at 5.

In the case of `COCCc1nc2c(N)nc3ccccc3c2n1CC(C)C` [Example 72, 2-(2-Methoxyethyl)-1-(2-methylpropyl)-1H-imidazo[4,5-c]quinolin-4-amine], the Interferon-α induction in the assay on interferon-α (dose concentration 0.10 μg/mL) is on record as 200 α Reference Units/mL; with interferon-α (dose concentration 0.50 μg/mL) it was 210 α Reference Units/mL; in the assay with interferon-α (dose concentration 1.0 μg/mL) it was 220 α Reference Units/mL; with interferon-α (dose concentration 5.0 μg/mL), 420 α Reference Units/mL. Besides, the log reduction at 0.1 µg/mL in assay [1] (setting [2]) is 5. For the same compound, the log reduction at 0.5 µg/mL in assay [1] (setting [2]) is 5. The log reduction at 1 µg/mL in assay [1] (setting [2]) was 5.

Turning to `COC(c1ccccc1)c1nc2c(N)nc3ccccc3c2n1CC(C)C` (stereo not drawn) [Example 51, 2-(α-Methoxybenzyl)-1-(2-methylpropyl)-1H-imidazo[4,5-c]quinolin-4-amine], the Interferon-α induction is given as <5 α Reference Units/mL in the assay on interferon-α (dose concentration 0.10 μg/mL), <5 α Reference Units/mL with interferon-α (dose concentration 0.50 μg/mL), 1000 α Reference Units/mL in the assay with interferon-α (dose concentration 1.0 μg/mL) and 330 α Reference Units/mL in the assay with interferon-α (dose concentration 5.0 μg/mL). The log reduction at 0.1 µg/mL in assay [1] (setting [2]) was 0. For the same compound, the log reduction at 0.5 µg/mL in assay [1] (setting [2]) came to 1. For the same compound, the log reduction at 1 µg/mL in assay [1] (setting [2]) was found to be 5.
